Earlier results as cited in patent US20180214453A1, “RIVAROXABAN PHARMACEUTICAL COMPOSITIONS” (INTERQUIM, S.A., priority 2015, published 2018).

Tests used:
[1] = CHMP assessment report for Xarelto, slightly soluble
[2] = according to WO05060940 A2, practically insoluble

Compound: O=C(NC[C@H]1CN(c2ccc(N3CCOCC3=O)cc2)C(=O)O1)c1ccc(Cl)s1 [Rivaroxaban, 5-chloro-N-({(5S)-2-oxo-3-[4-(3-oxomorpholin-4-yl)phenyl]-1,3-oxazolidin-5-yl}methyl)thiophene-2-carboxamide]
- solubility in organic solvents [1]: 1000 to 10000 µg/mL
- solubility in water [2]: about 7 mg/L
